Test system: 192522-019-R-J2-PDC complex tumor spheroid viability
Assay: Anticancer human tumor 192522-019-R-J2-PDC patient-derived colon adenocarcinoma cell line growth inhibition [POLQ]
Conditions: for IC50: curve of first compound; for viability, T/C: stronger effect = lower value
Experimental: Multicellular complex tumor spheroid response to Polymerase (POL) inhibitors (novobiocin, ART-558, RP6685) in combination with a variety of drugs and investigational agents in selected tumor cell lines
The POL inhibitors (novobiocin, ART-558, and RP6685) were evaluated both individually and in combination with standard of care and investigational anticancer small molecules within a complex spheroid model of solid tumors. . Complex spheroids include a stromal component modeled by human endothelial cells (HUVEC) and fibroblasts modeled by human mesenchymal stem cells (MSCs). The concentration ranges selected for each drug and investigational agent were based upon clinically achievable concentrations if the clinical Cmax of the agent was known.
Compounds. The drugs and investigational agents: novobiocin (NSC847541), ART-558 (NSC835418), RP-6685 (NSC848927), peposertib (NSC802822), ceralasertib (NSC780249), elimusertib (NSC800525), camonsertib (NSC841442), AZD-1390 (NSC803789), olaparib (NSC753686), talazoparib (NSC767125), rucaparib (NSC756644), sotorasib (NSC818433), MRTX-1133 (NSC836407), SN-38 (NSC673596), topotecan (NSC609699), epotoside (NSC141540), doxorubicin (NSC123127), gemcitabine (NSC613327), 5-fluorouracil (NSC19893), paclitaxel (NSC125973), vemurafenib (NSC761431), MSA-2 (NSC828583), SN-011 (NSC837082), adavosertib (NSC754352), prexasertib (NSC758257), carboplatin (NSC241240) and oxaliplatin (NSC266046), were obtained from the National Cancer Institute (NCI) Developmental Therapeutics Program Chemical Repository (21). The FDA-approved anticancer drug set is available from the Developmental Therapeutics Program at https://dtp.cancer.gov/organization/dscb/obtaining/. […] The stock solutions were prepared in dimethyl sulfoxide (DMSO, Sigma-Aldrich, St. Louis, MO, cat. D2650), except for the platinum compounds which were prepared in saline (Quality Biological, Gaithersburg, MD, cat. 114-055-101), at 800-fold the tested concentration and stored at -70 degrees C prior to their use. All drugs and investigational agents were tested over a range starting from a high concentration at or near the clinical Cmax and decreasing in half-log increments. If the clinical Cmax for an agent had not been determined, the highest concentration tested was 10 microM, except for SN-38, which was tested at a high concentration of 1 microM.
Cell Culture. All cells were maintained in an incubator at 37 degrees C and 5% CO2 with 95% humidity. The PDC lines were cultured according to standard operating procedures established by the NCI PDMR (https://pdmr.cancer.gov). Table 3 of the manuscript, lists the cell lines along with the number of the three cell types plated to form the mct-spheroids and media for tumor cell growth. After thawing, all PDC lines, except 997537-175-T-J1-PDC and 415267-285-R-J2-PDC, were cultured in Matrigel-coated flasks prepared with a working solution of 1X Ham's F-12 nutrient mix, without supplementation (Thermo Fisher Scientific, cat. 11765054), 100 U/mL penicillin-streptomycin (Thermo Fisher Scientific, cat. 15140122), and 2.5% Matrigel (Corning Inc., Corning, NY, cat. 354248) for the first three passages. The two PDC lines 997537-175-T-J1-PDC and 415267-285-R-J2-PDC were cultured on uncoated flasks. The 857933-349-R-J2-PDC line was cultured in 6C/Colon 1B media containing advanced DMEM/F-12 (Thermo Fisher Scientific, cat. 12634028), 10 mM HEPES (Thermo Fisher Scientific, cat. 15630080), 1X GlutaMAX supplement (Thermo Fisher Scientific, cat. 35050061), 0.1 mg/mL primocin (InvivoGen, San Diego, CA, cat. ant-pm-2), 10% defined fetal bovine serum, heat inactivated (HyClone Laboratories Inc., Logan, UT, cat. SH30070.03HI), 50% L-WRN conditioned media (ATCC, cat. CRL-3276), 1.25 mM N-Acetyl-L-cysteine (Sigma-Aldrich, cat. A9165), 10 mM nicotinamide (Sigma-Aldrich, cat. N0636), 1X B-27 supplement (Thermo Fisher Scientific, cat. 17504044), 1X N-2 supplement (Thermo Fisher Scientific, cat. […]

[1] = second compound 0.0316 µM, first compound 0.0316 µM
[2] = second compound 0.0316 µM, first compound 0.1 µM
[3] = second compound 0.0316 µM, first compound 0.316 µM
[4] = second compound 0.0316 µM, first compound 1 µM
[5] = second compound 0.0316 µM, first compound 3.16 µM
[6] = second compound 0.0316 µM, first compound 10 µM
[7] = second compound 0.1 µM, first compound 0.0316 µM
[8] = second compound 0.1 µM, first compound 0.1 µM
[9] = second compound 0.1 µM, first compound 0.316 µM
[10] = second compound 0.1 µM, first compound 1 µM
[11] = second compound 0.1 µM, first compound 3.16 µM
[12] = second compound 0.1 µM, first compound 10 µM
[13] = second compound 0.316 µM, first compound 0.0316 µM
[14] = second compound 0.316 µM, first compound 0.1 µM
[15] = second compound 0.316 µM, first compound 0.316 µM
[16] = second compound 0.316 µM, first compound 1 µM
[17] = second compound 0.316 µM, first compound 3.16 µM
[18] = second compound 0.316 µM, first compound 10 µM
[19] = second compound 1 µM, first compound 0.0316 µM
[20] = second compound 1 µM, first compound 0.1 µM
[21] = second compound 1 µM, first compound 0.316 µM
[22] = second compound 1 µM, first compound 1 µM
[23] = second compound 1 µM, first compound 3.16 µM
[24] = second compound 1 µM, first compound 10 µM
[25] = second compound 3.16 µM, first compound 0.0316 µM
[26] = second compound 3.16 µM, first compound 0.1 µM
[27] = second compound 3.16 µM, first compound 0.316 µM
[28] = second compound 3.16 µM, first compound 1 µM
[29] = second compound 3.16 µM, first compound 3.16 µM
[30] = second compound 3.16 µM, first compound 10 µM
[31] = second compound 10 µM, first compound 0.0316 µM
[32] = second compound 10 µM, first compound 0.1 µM
[33] = second compound 10 µM, first compound 0.316 µM
[34] = second compound 10 µM, first compound 1 µM
[35] = second compound 10 µM, first compound 3.16 µM
[36] = second compound 10 µM, first compound 10 µM
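Also: spheroids exposed to drugs for seven days before reading.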
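For viability, T/C in this document: 100% = DMSO vehicle control viability in luminescence.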

Compound: CC1COCCN1c1cc(C2(O)CC3CCC(C2)O3)c2cnn(-c3ccn[nH]3)c2n1 (centres undefined) + COC1C(OC(N)=O)C(O)C(Oc2ccc3c(O)c(NC(=O)c4ccc(O)c(CC=C(C)C)c4)c(=O)oc3c2C)OC1(C)C
- IC50 (second compound 0.0316 µM): 227 nM
- IC50 (second compound 0.1 µM): 242 nM
- IC50 (second compound 0.316 µM): 314 nM
- IC50 (second compound 1 µM): 254 nM
- IC50 (second compound 3.16 µM): 239 nM
- IC50 (second compound 10 µM): 247 nM
- viability, T/C [1]: 95.5%
- viability, T/C [2]: 70.3%
- viability, T/C [3]: 41.9%
- viability, T/C [4]: 33.7%
- viability, T/C [5]: 42.8%
- viability, T/C [6]: 46.5%
- viability, T/C [7]: 102%
- viability, T/C [8]: 81.8%
- viability, T/C [9]: 39.8%
- viability, T/C [10]: 33%
- viability, T/C [11]: 41.6%
- viability, T/C [12]: 47%
- viability, T/C [13]: 101%
- viability, T/C [14]: 83.4%
- viability, T/C [15]: 50.8%
- viability, T/C [16]: 36.9%
- viability, T/C [17]: 40.7%
- viability, T/C [18]: 48.5%
- viability, T/C [19]: 96.3%
- viability, T/C [20]: 73.5%
- viability, T/C [21]: 45%
- viability, T/C [22]: 33.5%
- viability, T/C [23]: 41.7%
- viability, T/C [24]: 53.1%
- viability, T/C [25]: 94%
- viability, T/C [26]: 77.4%
- viability, T/C [27]: 39.8%
- viability, T/C [28]: 34.4%
- viability, T/C [29]: 41.3%
- viability, T/C [30]: 49.1%
- viability, T/C [31]: 93.1%
- viability, T/C [32]: 70.8%
- viability, T/C [33]: 42.1%
- viability, T/C [34]: 38.5%
- viability, T/C [35]: 45.9%
- viability, T/C [36]: 51%

Compound: CC1COCCN1c1cc(-c2ccnn2C)c2ccnc(-c3ccn[nH]3)c2n1 (centres undefined) + Cc1cccc(N(C)C(=O)C2C(O)CCN2c2nc(C)cc(C(F)(F)F)c2C#N)c1
- IC50 (second compound 0.0316 µM): 359 nM
- IC50 (second compound 0.1 µM): 287 nM
- IC50 (second compound 0.316 µM): 397 nM
- IC50 (second compound 1 µM): 428 nM
- IC50 (second compound 3.16 µM): 402 nM
- IC50 (second compound 10 µM): 373 nM
- viability, T/C [1]: 101%
- viability, T/C [2]: 73%
- viability, T/C [3]: 55.6%
- viability, T/C [4]: 32.6%
- viability, T/C [5]: 43.4%
- viability, T/C [6]: 47.4%
- viability, T/C [7]: 108%
- viability, T/C [8]: 76.8%
- viability, T/C [9]: 49.4%
- viability, T/C [10]: 32.8%
- viability, T/C [11]: 42.1%
- viability, T/C [12]: 52.4%
- viability, T/C [13]: 100%
- viability, T/C [14]: 77.2%
- viability, T/C [15]: 56.5%
- viability, T/C [16]: 32.5%
- viability, T/C [17]: 37.9%
- viability, T/C [18]: 48.8%
- viability, T/C [19]: 91.4%
- viability, T/C [20]: 89.2%
- viability, T/C [21]: 53.1%
- viability, T/C [22]: 33%
- viability, T/C [23]: 37.7%
- viability, T/C [24]: 54.1%
- viability, T/C [25]: 95%
- viability, T/C [26]: 84%
- viability, T/C [27]: 51.7%
- viability, T/C [28]: 36.3%
- viability, T/C [29]: 44%
- viability, T/C [30]: 57.9%
- viability, T/C [31]: 94.9%
- viability, T/C [32]: 83.1%
- viability, T/C [33]: 51.9%
- viability, T/C [34]: 33.8%
- viability, T/C [35]: 44.2%
- viability, T/C [36]: 56.8%
